These results are taken from patent publication US20220306623A1, “PYRIDYL OR PYRIMIDYL MTOR KINASE INHIBITORS” (GLAXOSMITHKLINE INTELLECTUAL PROPERTY DEVELOPMENT LIMITED, priority 2019, published 2022).

Like-named read-outs stand apart in the source and are kept apart here.

The test relates to type I collagen deposition in primary lung fibroblasts derived from human tissue. The test is described as follows: High throughput type I collagen deposition (scar-in-a-jar) high content screening assay. It is filed as cell-based. The following applies: Primary lung fibroblast, 72 h, human pulmonary fibroblasts, 384-well, TGF-β 1 ng/ml 72 h.
The mark [1] stands for this setting: selected compounds, read-out: Scar in a jar (mean pIC50 values when tested in the scar-in-a-jar assay) (converted).
Where [2] appears, read: total collagen area, read-out: mean pIC50, high throughput type I collagen deposition (scar-in-a-jar) (converted).

On to `CC[C@H]1COCCN1c1cc(CS(C)(=O)=O)nc(-c2ccc3[nH]c(CNC)cc3n2)n1` [Example 1, [(5-{4-[(3S)-3-ethylmorpholin-4-yl]-6-(methanesulfonylmethyl)pyrimidin-2-yl}-1H-pyrrolo[3,2-b]pyridin-2-yl)methyl](methyl)amine], for which the IC50 runs as follows: under setting [1], 0.251 µM; under setting [2], 0.02 to 3.16 µM. Taken in the same sequence, the figures for `CC[C@H]1COCCN1c1cc(C2(S(C)(=O)=O)CCNCC2)cc(-c2ccc3[nH]c(C)cc3n2)n1` [Example 18, (S)-3-ethyl-4-(6-(2-methyl-1H-pyrrolo[3,2-b]pyridin-5-yl)-4-(4-(methylsulfonyl)piperidin-4-yl)pyridin-2-yl)morpholine] were 0.158 µM and 0.02 to 0.316 µM. For the compound `CC[C@H]1COCCN1c1cc(CS(N)(=O)=O)nc(-c2ccc3[nH]c(CNC)cc3n2)n1` [Example 6, {6-[(3S)-3-ethylmorpholin-4-yl]-2-{2-[(methylamino)methyl]-1H-pyrrolo[3,2-b]pyridin-5-yl}pyrimidin-4-yl}methanesulfonamide], the IC50 under setting [2] was 0.02 to 3.16 µM. For `CC[C@H]1COCCN1c1cc(C2(S(C)(=O)=O)CCOCC2)nc(-c2ccc3[nH]c(CO)cc3n2)n1` [Example 4, (5-{4-[(3S)-3-ethylmorpholin-4-yl]-6-(4-methanesulfonyloxan-4-yl)pyrimidin-2-yl}-1H-pyrrolo[3,2-b]pyridin-2-yl)methanol], the IC50 under setting [2] is 0.02 to 3.16 µM. Still for that read-out and setting: with `CC[C@H]1COCCN1c1cc(CS(N)(=O)=O)cc(-c2ccc3[nH]c(C)cc3n2)n1` [Example 23, (S)-(2-(3-ethylmorpholino)-6-(2-methyl-1H-pyrrolo[3,2-b]pyridin-5-yl)pyridin-4-yl)methanesulfonamide] the figure was 0.02 to 3.16 µM; with `CC[C@H]1COCCN1c1cc(CS(=O)(=O)NC)nc(-c2ccc3[nH]c(CO)cc3n2)n1` [Example 10, 1-{6-[(3S)-3-ethylmorpholin-4-yl]-2-[2-(hydroxymethyl)-1H-pyrrolo[3,2-b]pyridin-5-yl]pyrimidin-4-yl}-N-methylmethanesulfonamide], 0.02 to 3.16 µM; with `CC[C@H]1COCCN1c1cc(CS(C)(=O)=O)nc(-c2ccc3[nH]c(CO)cc3n2)n1` [Example 2, (S)-(5-(4-(3-ethylmorpholino)-6-((methylsulfonyl)methyl)pyrimidin-2-yl)-1H-pyrrolo[3,2-b]pyridin-2-yl)methanol], 0.02 to 3.16 µM.

Consider `CC[C@H]1COCC(=O)N1c1cc(CS(C)(=O)=O)cc(-c2ccc3[nH]c(CO)cc3n2)n1` [Example 27], for which, under setting [2], the IC50 is 0.02 to 3.16 µM. For the compound `CC[C@H]1COCC(=O)N1c1cc(CS(C)(=O)=O)nc(-c2ccc3[nH]c(C)cc3n2)n1` [Example 14, (5S)-5-ethyl-4-[6-(methanesulfonylmethyl)-2-{2-methyl-1H-pyrrolo[3,2-b]pyridin-5-yl}pyrimidin-4-yl]morpholin-3-one], the IC50 by setting is: under setting [1], 0.0251 µM; under setting [2], 0.02 to 3.16 µM. With `CCc1cc2nc(-c3nc(CS(C)(=O)=O)cc(N4C(=O)COC[C@@H]4CC)n3)ccc2[nH]1` [Example 15, (5S)-5-ethyl-4-(2-{2-ethyl-1H-pyrrolo[3,2-b]pyridin-5-yl}-6-(methanesulfonylmethyl)pyrimidin-4-yl)morpholin-3-one], the IC50 runs as follows: under setting [1], 0.158 µM; under setting [2], 0.02 to 3.16 µM.

Consider `CC[C@H]1COCC(=O)N1c1cc(C2(S(C)(=O)=O)CCOCC2)cc(-c2ccc3[nH]c(C)cc3n2)n1` [Example 25, (S)-5-ethyl-4-(6-(2-methyl-1H-pyrrolo[3,2-b]pyridin-5-yl)-4-(4-(methylsulfonyl)tetrahydro-2H-pyran-4-yl)pyridin-2-yl)morpholin-3-one], for which the IC50 under setting [2] is 0.02 to 3.16 µM. Take `CC[C@H]1COCCN1c1cc(CS(=O)(=O)N(C)C)nc(-c2ccc3[nH]c(CO)cc3n2)n1` [Example 9, 1-{6-[(3S)-3-ethylmorpholin-4-yl]-2-[2-(hydroxymethyl)-1H-pyrrolo[3,2-b]pyridin-5-yl]pyrimidin-4-yl}-N,N-dimethylmethanesulfonamide]: the IC50 under setting [2] is 0.02 to 3.16 µM.

Turning to `CNCc1cc2nc(-c3cc(CS(C)(=O)=O)cc(N4CCO[C@H](C)[C@H]4C)n3)ccc2[nH]1` [Example 8, 1-(5-(6-((2R,3R)-2,3-dimethylmorpholino)-4-((methylsulfonyl)methyl)pyridin-2-yl)-1Hpyrrolo[3,2-b]pyridin-2-yl)-Nmethylmethanamine], the IC50 under setting [2] was 0.02 to 3.16 µM. Regarding `CC[C@H]1COCC(=O)N1c1cc(CS(C)(=O)=O)cc(-c2ccc3[nH]c(C)cc3n2)n1` [Example 24, (S)-5-ethyl-4-(6-(2-methyl-1H-pyrrolo[3,2-b]pyridin-5-yl)-4-((methylsulfonyl)methyl)pyridin-2-yl)morpholin-3-one], the IC50 runs as follows: under setting [1], 0.126 µM; under setting [2], 0.02 to 3.16 µM.

For the compound `CC[C@H]1COCCN1c1cc(C2(S(C)(=O)=O)CCOCC2)nc(-c2ccc3[nH]c(C)cc3n2)n1` [Example 13, (3S)-3-ethyl-4-[6-(4-methanesulfonyloxan-4-yl)-2-{2-methyl-1H-pyrrolo[3,2-b]pyridin-5-yl}pyrimidin-4-yl]morpholine], the IC50 under setting [2] was 0.02 to 3.16 µM. With `CC[C@H]1COCCN1c1cc(CS(=O)(=O)N(C)C)nc(-c2ccc3[nH]c(CNC)cc3n2)n1` [Example 16, 1-{6-[(3S)-3-ethylmorpholin-4-yl]-2-{2-[(methylamino)methyl]-1H-pyrrolo[3,2-b]pyridin-5-yl}pyrimidin-4-yl}-N,N-dimethylmethanesulfonamide], the IC50 was 0.1 µM under setting [1] and 0.02 to 3.16 µM under setting [2]. Consider `CC[C@H]1COCC(=O)N1c1cc(C2(S(C)(=O)=O)CCOCC2)cc(-c2ccc3[nH]c(CO)cc3n2)n1` [Example 26], for which the IC50 under setting [2] is 0.02 to 3.16 µM.
